# According to US20240148821A1, “PHARMACEUTICAL USE OF CYCLIC PEPTIDE COMPOUND” (CHUGAI SEIYAKU KABUSHIKI KAISHA, priority 2021, published 2024):
# Bridge positions count the residues as written; N and C are the ends. Square brackets hold non-standard residues; d marks the D form. Peptide text beside a SMILES is read from it. * marks the point of attachment. hPhe(3-Cl-4-CF3) = N[C@@H](CCc1ccc(C(F)(F)F)c(Cl)c1)C(=O)O; hPhe(3-F,4-CF3) = N[C@@H](CCc1ccc(C(F)(F)F)c(F)c1)C(=O)O; NMePhe(4-Cl) = CN[C@@H](Cc1ccc(Cl)cc1)C(=O)O; NMePhe(4-Me) = CN[C@@H](Cc1ccc(C)cc1)C(=O)O; NMeNle(6-CHF2) = CN[C@@H](CCCCC(F)F)C(=O)O; NMePhe(4-F) = CN[C@@H](Cc1ccc(F)cc1)C(=O)O; Phe(2-OMe) = COc1ccccc1C[C@H](N)C(=O)O; Phe(3-I) = N[C@@H](Cc1cccc(I)c1)C(=O)O; NMeCha = CN[C@@H](CC1CCCCC1)C(=O)O; NMeI = CC[C@H](C)[C@H](NC)C(=O)O; NMeD = CN[C@@H](CC(=O)O)C(=O)O; NMeL = CN[C@@H](CC(C)C)C(=O)O; Oxazolidin(3-yl) = C1CN(*)CO1; Chg = N[C@H](C(=O)O)C1CCCCC1; NMeV = CN[C@H](C(=O)O)C(C)C; d(β3hA) = C[C@@H](N)CC(=O)O; Ac6c = NC1(C(=O)O)CCCCC1; NMeA = CN[C@@H](C)C(=O)O; NMeAib = CNC(C)(C)C(=O)O; Piperidide = C1CCN(*)CC1; Pra = C#CC[C@H](N)C(=O)O; Pyrrolidide = C1CCN(*)C1; dNMeA = CN[C@H](C)C(=O)O; Ac5c = NC1(C(=O)O)CCCC1; Aze = O=C(O)[C@@H]1CCN1; Aib = CC(C)(N)C(=O)O; Sar = CNCC(=O)O
# System: Human pancreatic cancer cell line AsPC-1 (G12D mutation Kras)
# Experiment: AsPC-1 cell growth inhibition (AsPC-1 CGI)
# Type: cell-based
# Details: read-out: AsPC-1 cell growth inhibition, 50% growth inhibitory concentration (IC50 value); 96 hours, CellTiter-Glo, values classified in ranges
# Procedure: Test compounds were serially dilated with dimethyl sulfoxide, and 200 nL was then dispensed to a U-bottom 96-well plate using Labcyte Echo. […] The cell suspension was dispensed to a. plate containing a test compound at 100 μL per well and incubated at 37° C. in a 5% carbon dioxide gas incubator. 96 hours later, 80 μL of CellTiter-Glo (Promega) was added to each well and fluorescence was measured.
row,Structure (SMILES),IC50
1,CC[C@H](C)[C@@H]1NC(=O)[C@H](C)N(C)C(=O)C[C@@H](C(=O)N2CCCCC2)N(C)C(=O)[C@H](C(C)C)N(C)C(=O)C2(CCCC2)NC(=O)[C@@H]2CCCN2C(=O)[C@H](CCc2ccc(C(F)(F)F)c(Cl)c2)NC(=O)[C@@H](C)N(C)C(=O)[C@H](CC2CCCCC2)N(C)C(=O)[C@@H]2CCN2C(=O)[C@H](C)N(C)C1=O [Compound 1103] ([NMeA]I[NMeA][Aze][NMeCha][dNMeA][hPhe(3-Cl-4-CF3)]P[Ac5c][NMeV][NMeD]-Piperidide; lactam N-11),> 500 nM
2,CC[C@H](C)[C@@H]1NC(=O)[C@H](CC(C)C)N(C)C(=O)C[C@@H](C(=O)N2CCCCC2)N(C)C(=O)[C@H](C(C)C)N(C)C(=O)C2(CCCC2)NC(=O)[C@H](C)NC(=O)[C@H](CCc2ccc(C(F)(F)F)c(Cl)c2)NC(=O)CN(C)C(=O)[C@H](CC2CCCCC2)N(C)C(=O)[C@@H]2CCN2C(=O)[C@H](C)N(C)C1=O [Compound 1316] ([NMeL]I[NMeA][Aze][NMeCha][Sar][hPhe(3-Cl-4-CF3)]A[Ac5c][NMeV][NMeD]-Piperidide; lactam N-11),> 500 nM
3,CC[C@H](C)[C@@H]1NC(=O)[C@H](CC(C)C)N(C)C(=O)C[C@@H](C)NC(=O)[C@H](C(C)C)N(C)C(=O)C2(CCCC2)NC(=O)[C@@H]2CCCN2C(=O)[C@H](CCc2ccc(C(F)(F)F)c(Cl)c2)NC(=O)CN(C)C(=O)[C@H](CC2CCCCC2)N(C)C(=O)[C@@H]2CCCN2C(=O)CN(C)C1=O [Compound 1050] (cyclo([Ac5c][NMeV][d(β3hA)][NMeL]I[Sar]P[NMeCha][Sar][hPhe(3-Cl-4-CF3)]P)),> 500 nM
4,CC[C@H](C)[C@@H]1NC(=O)[C@H](CC(C)C)N(C)C(=O)C[C@@H](C(=O)N2CCOC2)NC(=O)[C@H]([C@@H](C)CC)N(C)C(=O)C2(CCCC2)NC(=O)[C@@H]2CCCN2C(=O)[C@H](CCc2ccc(C(F)(F)F)c(Cl)c2)NC(=O)CN(C)C(=O)[C@H](CC2CCCCC2)N(C)C(=O)CN(C)C(=O)CN(C)C1=O [Compound 1247] ([NMeL]I[Sar][Sar][NMeCha][Sar][hPhe(3-Cl-4-CF3)]P[Ac5c][NMeI]D-{Oxazolidin(3-yl)}; lactam N-11),> 500 nM
5,"CC[C@H](C)[C@@H]1NC(=O)[C@H](CC(C)C)N(C)C(=O)C[C@@H](C)NC(=O)[C@H](CC(C)C)N(C)C(=O)C2(CCCCC2)NC(=O)[C@@H]2CCCN2C(=O)[C@H](CCc2ccc(C(F)(F)F)c(F)c2)NC(=O)CN(C)C(=O)[C@H](CC2CCCCC2)N(C)C(=O)CN(C)C(=O)CN(C)C1=O [Compound 231] (cyclo([Ac6c][NMeL][d(β3hA)][NMeL]I[Sar][Sar][NMeCha][Sar][hPhe(3-F,4-CF3)]P))",> 500 nM
6,CC[C@H](C)[C@@H]1NC(=O)[C@H](CC(C)C)N(C)C(=O)C[C@@H](C(=O)N2CCCCC2)N(C)C(=O)[C@H](CC(C)C)NC(=O)C(C)(C)N(C)C(=O)[C@H](Cc2ccccc2OC)NC(=O)[C@H](Cc2cccc(I)c2)NC(=O)CN(C)C(=O)[C@H](Cc2ccc(C)cc2)N(C)C(=O)[C@@H]2CCN2C(=O)CN(C)C1=O [Compound 459] ([NMeL]I[Sar][Aze][NMePhe(4-Me)][Sar][Phe(3-I)][Phe(2-OMe)][NMeAib]L[NMeD]-Piperidide; lactam N-11),> 500 nM
7,C#CC[C@@H]1NC(=O)[C@H](Cc2cccc(I)c2)NC(=O)CN(C)C(=O)[C@H](Cc2ccc(Cl)cc2)N(C)C(=O)[C@@H]2CCN2C(=O)[C@H](C)N(C)C(=O)[C@H]([C@@H](C)CC)NC(=O)[C@H](CC(C)C)N(C)C(=O)C[C@@H](C(=O)N2CCCCC2)N(C)C(=O)[C@H](CC(C)C)NC(=O)C(C)(C)N(C)C1=O [Compound 1428] ([NMeL]I[NMeA][Aze][NMePhe(4-Cl)][Sar][Phe(3-I)][Pra][NMeAib]L[NMeD]-Piperidide; lactam N-11),> 500 nM
8,"CC(C)C[C@H]1C(=O)N[C@@H](C2CCCCC2)C(=O)N(C)CC(=O)N(C)CC(=O)N(C)[C@@H](CCCCC(F)F)C(=O)N(C)CC(=O)N[C@@H](CCc2ccc(C(F)(F)F)c(F)c2)C(=O)N(C)[C@@H](CC(C)C)C(=O)NC(C)(C)C(=O)N(C)[C@@H](CC(C)C)C(=O)N[C@H](C(=O)N2CCCC2)CC(=O)N1C [Compound 1453] ([NMeL][Chg][Sar][Sar][NMeNle(6-CHF2)][Sar][hPhe(3-F,4-CF3)][NMeL][Aib][NMeL]D-Pyrrolidide; lactam N-11)",> 500 nM
9,C#CC[C@@H]1NC(=O)[C@H](Cc2cccc(I)c2)NC(=O)CN(C)C(=O)[C@H](Cc2ccc(F)cc2)N(C)C(=O)[C@@H]2CCN2C(=O)[C@H](C)N(C)C(=O)[C@H]([C@@H](C)CC)NC(=O)[C@H](CC(C)C)N(C)C(=O)C[C@@H](C(=O)N2CCCCC2)N(C)C(=O)[C@H](CC(C)C)NC(=O)C(C)(C)N(C)C1=O [Compound 1230] ([NMeL]I[NMeA][Aze][NMePhe(4-F)][Sar][Phe(3-I)][Pra][NMeAib]L[NMeD]-Piperidide; lactam N-11),> 500 nM
